US20150344540A1, “NOVEL GLP-1 RECEPTOR AGONISTS WITH CHOLESTEROL EFFLUX ACTIVITY” (NOVO NORDISK A/S, priority 2012, published 2015)
Where a SMILES comes first, the peptide text is derived from it. [ ]: non-standard residue; d: D form. Aib = CC(C)(N)C(=O)O

tested on: Mouse monocyte/macrophage cell line, RAW 264.7; test: Cholesterol efflux assay (3H-cholesterol, macrophage cell line); assay type: cell-based; conditions: RAW 264.7, 4 hrs incubation, 0.1% human serum albumin, ABCA1-mediated efflux

Row | Compound | 4 h Cholesterol Efflux Emax [%]
1 | CC[C@H](C)[C@H](NC(=O)[C@H](Cc1ccccc1)NC(=O)[C@H](CCC(=O)O)NC(=O)[C@H](CCCCN)NC(=O)[C@@H](NC(=O)[C@H](C)NC(=O)[C@H](CCCCN)NC(=O)CNC(=O)[C@H](CCC(=O)O)NC(=O)[C@H](CC(C)C)NC(=O)[C@H](Cc1ccc(O)cc1)NC(=O)[C@H](CO)NC(=O)[C@H](CO)NC(=O)[C@@H](NC(=O)[C@H](CC(=O)O)NC(=O)[C@H](CO)NC(=O)[C@@H](NC(=O)[C@H](Cc1ccccc1)NC(=O)[C@@H](NC(=O)CNC(=O)[C@H](CCC(=O)O)NC(=O)C(C)(C)NC(=O)[C@@H](N)Cc1c[nH]cn1)[C@@H](C)O)[C@@H](C)O)C(C)C)C(C)C)C(=O)N[C@@H](C)C(=O)N[C@@H](Cc1c[nH]c2ccccc12)C(=O)N[C@@H](CC(C)C)C(=O)N[C@H](C(=O)N[C@@H](CCC(=O)O)C(=O)N[C@@H](CCCCN)C(=O)NC(C)(C)C(=O)N[C@@H](CCCCN)C(=O)N[C@@H](CCC(=O)O)C(=O)N[C@@H](Cc1ccccc1)C(=O)N[C@@H](CC(C)C)C(N)=O)C(C)C [Compound 90, [Aib8,Lys23,Val25,Glu34,Lys35,Aib36,Lys37]-GLP-1-(7-37)-peptidyl-Glu-Phe-Leu amide] (H-H[Aib]EGTFTSDVSSYLEGKAVKEFIAWLVEK[Aib]KEFL-NH2; N-terminus assumed) | 110
2 | H-HAEGTFTSDVSSYLEGQAAKEFIAWLVEKVKEHLEK-OH [Compound 126, [Glu34,Lys35,Val36,Lys37]-GLP-1-(7-37)-peptidyl-Glu-His-Leu-Glu-Lys] | 102
3 | CC[C@H](C)[C@H](NC(=O)[C@H](Cc1ccccc1)NC(=O)[C@H](CCC(=O)O)NC(=O)[C@H](CCCCN)NC(=O)[C@@H](NC(=O)[C@H](C)NC(=O)[C@H](CCC(=O)O)NC(=O)CNC(=O)[C@H](CCC(=O)O)NC(=O)[C@H](CC(C)C)NC(=O)[C@H](Cc1ccc(O)cc1)NC(=O)[C@H](CO)NC(=O)[C@H](CO)NC(=O)[C@@H](NC(=O)[C@H](CC(=O)O)NC(=O)[C@H](CO)NC(=O)[C@@H](NC(=O)[C@H](Cc1ccccc1)NC(=O)[C@@H](NC(=O)CNC(=O)[C@H](CCC(=O)O)NC(=O)C(C)(C)NC(=O)[C@@H](N)Cc1c[nH]cn1)[C@@H](C)O)[C@@H](C)O)C(C)C)C(C)C)C(=O)N[C@@H](CCCCN)C(=O)N[C@@H](Cc1c[nH]c2ccccc12)C(=O)N[C@@H](CC(C)C)C(=O)N[C@H](C(=O)N[C@@H](CCC(=O)O)C(=O)N[C@@H](CCCCN)C(=O)N[C@@H](CC(C)C)C(=O)N[C@@H](CCCCN)C(=O)N[C@@H](CCC(=O)O)C(=O)N[C@@H](Cc1ccccc1)C(=O)N[C@@H](CC(C)C)C(N)=O)C(C)C [Compound 85, [Aib8,Glu23,Val25,Lys30,Glu34,Lys35,Leu36,Lys37]-GLP-1-(7-37)-peptidyl-Glu-Phe-Leu amide] (H-H[Aib]EGTFTSDVSSYLEGEAVKEFIKWLVEKLKEFL-NH2) | 93
